From US20240009224A1, “ACYCLIC THREONINOL NUCLEIC ACID” (The University of Tokyo, priority 2021, published 2024)
{Fluorescein} = fluorescein label

System: HeLa cells
Experiment: Flow cytometry of HeLa cells after introduction of fluorescein-labeled nucleic acid (cell membrane permeability)
Assay type: cell-based
Conditions: fluorescein-labeled control DNA = 1
Method: HeLa cells were cultured in Dulbecco's modified Eagle's medium (DMEM, manufactured by Thermo Fisher Scientific, Inc.) supplemented with 10% FBS and 0.5% penicillin/streptomycin in a humidified atmosphere (5 vol % CO2) at 37° C. Cells for image analysis were cultured in a 35 mm glass bottom dish (IWAKI, manufactured by AGC Techno Glass Co., Ltd.).
[…] On the day after seeding, the medium in each well was changed to DMEM medium (1 mL) containing a fluorescein-conjugated nucleic acid (2.5 μM) and incubated for 4 or 24 hours. Then, after washing the cell layer in the well twice with PBS, the cells were detached by treatment with 0.05% (w/v) trypsin (200 μL) at 37° C. for 5 minutes. The recovered cells were suspended in DMEM (600 μL). The cell suspension was separated by centrifugation process (400×g, 3 minutes), and PBS/1% BSA (500 μL) was added thereto. The ratio of fluorescent cells in this cell suspension and the mean fluorescence intensity were analyzed with a flow cytometer (“guava easyCyte8”, manufactured by Luminex Corporation).
After introducing a nucleic acid (fluorescein-labeled aTNA-N5[PFC8]) in which fluorescein was bound to the 3′-end of the synthesized aTNA-N5[PFC8] into HeLa cells, flow cytometry was performed, and the number of cells into which the fluorescein-labeled nucleic acid was introduced and the amount of fluorescein-labeled nucleic acid introduced into each cell were quantified based on the fluorescence intensity of fluorescein. As a control, a nucleic acid in which fluorescein was bound to the 3′-end of the control DNA (fluorescein-labeled control DNA) was also introduced into HeLa cells in the same manner and then analyzed by flow cytometry.
The fluorescein-labeled aTNA-N5[PFC8] produced in Example 1 was hybridized with a single-stranded DNA (control rDNA) composed of a base sequence (SEQ ID NO: 2) complementary to that of the control DNA to produce a fluorescein-labeled double-stranded DNA (fluorescein-labeled aTNA-N5[PFC8]/rDNA) having a repeating structure of the structure (A1) at the 5′-end and bound with fluorescein at the 3′-end. […] These fluorescein-labeled double-stranded DNAs were introduced into HeLa cells and then analyzed by flow cytometry in the same manner as in Example 1.
After respectively introducing nucleic acids (fluorescein-labeled aTNA-C2[PFC8] and fluorescein-labeled aTNA-C5[PFC8]) in which fluorescein was bound to the 3′-ends of the synthesized aTNA-C2[PFC8] and aTNA-C5[PFC8] into HeLa cells, flow cytometry was performed, and the number of cells into which the fluorescein-labeled nucleic acid was introduced and the amount of fluorescein-labeled nucleic acid introduced into each cell were quantified based on the fluorescence intensity of fluorescein. […]

Measured: Relative fluorescence intensity of cells into which fluorescein-labeled nucleic acid was introduced

Control DNA: control DNA (Seq. No. 1), natural single stranded DNA; fluorescein bound to the 3′-end (DNA TTTTTCAGTTGACCATATA; DNA, 3' {Fluorescein}, backbone and methylation of C not given here)
1.0: Example 1, single-stranded, 2.5 μM, 4 or 24 hours | Example 3, single-stranded | Example 4, single-stranded, 96-well plate, 10^4 cells per well, 2.5 μM, 4 hours | Example 6, single-stranded, 96-well plate, 10^4 cells per well, 2.0 μM, 4 hours
